According to ChEMBL document CHEMBL1177695, “Discovery and development of natural product-derived chemotherapeutic agents based on a medicinal chemistry approach” (J Nat Prod, 2010):
Values after ≈ are worked out from the molar mass of the structure shown. One block for each compound: values may come before it.

Experiments:
melanoma (human) = experiment: Growth inhibition of human melanoma cells; details: Melanoma tumor cell line
[1] = Growth inhibition of human ovarian cancer cells; type: functional; details: Cancer cell lines
[2] = Growth inhibition of human renal cancer cells; type: functional; details: Cancer cell lines
[3] = Growth inhibition of human leukemia cells; type: functional; details: Leukemia cell
[4] = Growth inhibition of human colon cancer cells; type: functional; details: Cancer cell lines
[5] = Growth inhibition of human CNS cancer cells; type: functional; details: Cancer cell lines
[6] = Growth inhibition of human melanoma cells; type: functional; details: Melanoma cell
[7] = Growth inhibition of human lung cancer cells; type: functional; details: Cancer cell lines
[8] = Oral bioavailability in rat; type: ADME, organism-based; details: in vivo
[9] = test system: Human immunodeficiency virus 1; experiment: Antiviral activity against HIV1 3B infected in H9 cells assessed as inhibition of viral replication by p24 antigen ELISA; type: functional, organism-based; details: Human immunodeficiency virus 1, 3B, H9; read-out: EC50
[10] = Therapeutic index, ratio of IC50 for human H9 cells to EC50 for HIV 3B; type: cell-based; details: read-out: TI
Aspergillus niger = experiment: Antifungal activity against Aspergillus niger; type: functional
Staphylococcus aureus = experiment: Antibacterial activity against Staphylococcus aureus; type: functional
Escherichia coli = experiment: Antibacterial activity against Escherichia coli; type: functional
Pseudomonas aeruginosa = experiment: Antibacterial activity against Pseudomonas aeruginosa; type: functional
Pseudomonas fluorescens = experiment: Antibacterial activity against Pseudomonas fluorescens; type: functional
Aureobasidium pullulans = experiment: Antifungal activity against Aureobasidium pullulans; type: functional
[11] = test system: Human immunodeficiency virus 1; experiment: Antiviral activity against HIV1 PI-R; type: functional, organism-based; details: Human immunodeficiency virus 1, PI-R
[12] = test system: Human immunodeficiency virus 1; experiment: Antiviral activity against HIV1 NL4-3; type: functional, organism-based; details: Human immunodeficiency virus 1, NL4-3
[13] = Cytotoxicity against human Hep3B cells after 72 hrs by MTT assay; type: functional, cell-based, Hep 3B2
MCF7 [14] = experiment: Cytotoxicity against human MCF7 cells after 72 hrs by MTT assay; type: functional, cell-based; details: MCF7, 72 h
MDA-MB-231 = experiment: Cytotoxicity against human MDA-MB-231 cells after 72 hrs by MTT assay; type: functional, cell-based; details: MDA-MB-231, 72 h
ZR-75-1 = experiment: Cytotoxicity against human ZR-75-1 cells; type: functional; details: read-out: ED50 (the source's name)
SK-BR-3 = experiment: Cytotoxicity against human SK-BR-3 cells overexpressing HER2; type: functional; details: read-out: ED50 (the source's name)
MCF7 [15] = experiment: Cytotoxicity against human MCF7 cells; type: functional; details: read-out: ED50 (the source's name)
[16] = test system: Human immunodeficiency virus 1; experiment: Antiviral activity against HIV1 infected in human CEM-SS cells assessed as inhibition of viral replication; type: functional, organism-based; details: Human immunodeficiency virus 1, CEM-SS

SMILES: O=C1c2ccsc2C(=O)c2sc(CO)cc21
GI50 (melanoma (human)): 18.2 nM

SMILES: COC(=O)[C@]12OC[C@]34[C@H]([C@@H](O)[C@@H]1O)[C@@]1(C)CC(=O)C(O)=C(C)[C@@H]1C[C@H]3OC(=O)[C@H](OC(=O)/C=C(/C)C(F)(F)F)[C@@H]24
GI50 [1]: 100 nM
GI50 [2]: 100 nM
GI50 [3]: 100 nM
GI50 [4]: 100 nM
GI50 [5]: 100 nM
GI50 [6]: 100 nM
GI50 [7]: 100 nM

SMILES: O=C1c2ccccc2C(=O)c2c(NCC3CO3)ccc(NCC3CO3)c21 (stereo unspecified)
MIC (Aspergillus niger): 0.13 µg/mL (≈ 0.371 µM)
MIC (Staphylococcus aureus): 0.13 µg/mL (≈ 0.371 µM)
MIC (Escherichia coli): 250 µg/mL (≈ 714 µM)
MIC (Pseudomonas aeruginosa): 63 µg/mL (≈ 180 µM)
MIC (Pseudomonas fluorescens): 0.13 µg/mL (≈ 0.371 µM)
MIC (Aureobasidium pullulans): 0.13 µg/mL (≈ 0.371 µM)

SMILES: O=C1C=CC(O)(c2cc(=O)c3c(ccc4ccccc43)o2)C=C1
IC50 [13]: 0.3 µg/mL (≈ 0.986 µM)
IC50 (MCF7 [14]): 0.66 µg/mL (≈ 2.17 µM)
IC50 (MDA-MB-231): 0.39 µg/mL (≈ 1.28 µM)

SMILES: CCc1cccc2c1ccc1c3occ(C)c3c(=O)oc21
EC50 (ZR-75-1): 0.18 µg/mL (≈ 0.647 µM)
EC50 (SK-BR-3): 0.1 µg/mL (≈ 0.359 µM)
EC50 (MCF7 [15]): 0.45 µg/mL (≈ 1.62 µM)

More lines, main results first:

bioavailability [8]: 15%
EC50 [9]: 4.2 nM
SMILES: Cc1c(CO)c(=O)oc2c3c(ccc12)OC(C)(C)[C@H](OC(=O)C12CCC(C)(C(=O)O1)C2(C)C)[C@@H]3OC(=O)C12CCC(C)(C(=O)O1)C2(C)C (stereo partly specified)
selectivity ratio [10]: 6000

EC50 [11]: 21 nM
EC50 [12]: 8.5 nM
SMILES: CC(C)C[C@@H](NC(=O)[C@]12CCC(C)(C)C=C1[C@H]1CC[C@@H]3[C@@]4(C)CC[C@H](OC(=O)CC(C)(C)C(=O)O)C(C)(C)[C@@H]4CC[C@@]3(C)[C@]1(C)CC2)C(=O)O

EC50 [16]: 64 nM
SMILES: Cc1cc(=S)oc2c3c(ccc12)OC(C)(C)[C@H](OC(=O)C12CCC(C)(C(=O)O1)C2(C)C)[C@@H]3OC(=O)C12CCC(C)(C(=O)O1)C2(C)C (stereo partly specified)
